Results as given in patent US20200155567A1, “TREATMENT OF CANCERS USING A COMBINATION COMPRISING PARP INHIBITORS, TEMOZOLOMIDE AND/OR RADIATION THERAPY” (BEIGENE, LTD., priority 2017, published 2020).

Key:
[1] = tested on: H209-T small cell lung cancer xenografts; experiment: H209-T intracranial tumor model; assay type: in vivo, nude mice; conditions: single agent, 2.73 mg/kg BID
Description: H209-T is a TMZ-resistant cell line generated by treating H209-xenografted tumors with multiple cycles of TMZ in vivo.

[2] = tested on: locally advanced or metastatic solid tumors; assay type: in vivo
Procedure: This dose-escalation/expansion study is enrolling pts using a modified 3+3 design to establish the safety and MTD of Compound B plus TMZ. During dose escalation, pts receive Compound B plus escalating doses of TMZ QD on Days 1-7 (Arm A) or continuously (Arm B) of each 28-day cycle. In Arm A and Arm B: Compound B was administered at the doses of 60 mg PO BID; TMZ was administered at 20 mg, 40 mg, 80 mg, 120 mg QD corresponds to 12 mg/m^2, 23 mg/m^2, 46 mg/m^2and 69 mg/m^2assuming an average body surface area of 1.73 m^2, respectively will be administered PO QD.
The primary endpoint is safety/tolerability, including estimation of MTD and RP2D. Key secondary endpoints are PK profiles of TMZ and Compound B and antitumor activity (RECIST v1.1) of combination treatment; biomarker (eg, gBRCA) assessment is exploratory.

[3] = tested on: H209 small cell lung cancer xenograft; conditions: single agent, 2.73 mg/kg BID x 21 days
[4] = tested on: newly diagnosed or recurrent/refractory glioblastoma (GBM); experiment: dose-escalation/expansion study of Compound B with RT and/or TMZ in GBM (Example 5); assay type: in vivo, human; conditions: across study arms, 15 patients
Procedure: This ongoing dose-escalation/expansion study was designed to determine the safety/tolerability and antitumor effects of Compound B (60 mg PO BID) in combination with RT and/or TMZ. The dose-escalation component consists of 3 arms:
(Arm A) Compound B (60 mg BID) at increasing exposures of 2, 4, or 6 weeks in combination with RT for 6 to 7 weeks, in newly diagnosed patients with GBM with unmethylated MGMT promoter (‘unmethylated GBM’)), and after RT is completed, subjects will receive no further study treatment;
(Arm B) Depending on the safety of the Arm A combination, Compound B in combination with RT for 6 to 7 weeks and increasing TMZ doses, in newly diagnosed patients with unmethylated GBM, and after RT is completed, subjects will receive no further study treatment;
(Arm C) Compound B in combination with increasing dose of TMZ administered on Days 1 to 21 of each 28-day cycle, in patients with recurrent/refractory methylated or unmethylated GBM.
In Arm A, Arm B and Arm C: Compound B was administered at the doses of 60 mg BID (PO); Radiation therapy (RT) was administered QD×5 days/week for 6 to 7 weeks with 1.8 to 2 Gy/fraction for a total dose of up to 60 Gy; flat-dosing was used for TMZ, and the first dose level of 40 mg QD corresponds to 23 mg/m^2 assuming an average body surface area of 1.73 m^2. […]

PARylation = experiment: PK/PD study, PARylation in MDA-MB-436 breast cancer xenografts; assay type: in vivo, mice; conditions: oral administration
Description: (§1) Inhibition of PARylation in the tumor tissues correlated well with tumor drug concentrations of Compound B.

[5] = tested on: tumor cell lines with defects of the HR pathway; experiment: in vitro activity against tumor cell lines with defects of the HR pathway; assay type: cell-based
Description: as §1

brain penetrance = conditions: in vivo
MDA-MB-436 breast cancer = experiment: BRCA1-mutant mouse xenograft model (MDA-MB-436 breast cancer); assay type: in vivo
Description: as §1

[6] = tested on: non-BRCA1/2-mutated cancers; conditions: cited from earlier work
PARP1/2 = conditions: disclosed in WO2013/097225A1; cited from earlier work

## C[C@]12CCCN1CC1=NNC(=O)c3cc(F)cc4[nH]c2c1c34 [Compound B, (R)-2-fluoro-10a-methyl-7,8,9,10,10a,11-hexahydro-5,6,7a,11-tetraazacyclohepta[def]cyclopenta[a]fluoren-4(5H)-one sesqui-hydrate]
[1]
  effect on tumor growth: no significant effect on tumor growth
[2]; 16 pts, Compound B 60 mg BID plus TMZ 20-120 mg QD
  most common drug-related AE: nausea (n pts): 6
[2]; in combination
  plasma exposure: consistent with single-agent trials
[3]
  effect on tumor growth: no significant effect on tumor growth
[4]
  Compound B-related AE fatigue (n patients): 5
  Compound B-related AE nausea (n patients): 6
PARylation
  inhibition of PARylation in xenografts: time- and dose-dependent inhibition of PARylation
[5]
  in vitro activity as a single agent: excellent in vitro activity
Brain penetrance
  brain penetrance: significant brain penetrance
MDA-MB-436 breast cancer; more potent than olaparib
  potency relative to olaparib: 16 fold
MDA-MB-436 breast cancer; single agent
  anti-tumor activity: strong anti-tumor activity

## Cn1nnc2c(C(N)=O)ncn2c1=O [TMZ, temozolomide]
[2]; human, in vivo
  most common drug-related AE: thrombocytopenia (n pts): 5
[6]; with 1 mg talazoparib
  MTD, TMZ: 37 mg/m^2

## C[C@]12CCCN1CC1=NNC(=O)c3cc(F)cc4[nH]c2c1c34 [Compound A, (R)-2-fluoro-10a-methyl-7,8,9,10,10a,11-hexahydro-5,6,7a,11-tetraazacyclohepta[def]cyclopenta[a]fluoren-4(5H)-one]
PARP1/2
  PARP1/2 inhibitory activities: highly selective and potent

## Cn1ncnc1[C@H]1c2n[nH]c(=O)c3cc(F)cc(c23)N[C@@H]1c1ccc(F)cc1 [talazoparib]
[6]; plus 37 mg/m^2 of TMZ
  MTD, talazoparib: 1 mg
